Reference: EP3818828A1 (priority 2019, dated 2021)
Values after ≈ are worked out from the molar mass of the structure shown.

Key:
[1] = system: zucchini, cucumber, flax, and tomato; experiment: Crop safety in the field efficiency tests; assay type: in vivo; settings: at the test doses
From the text: (§1) The variety of zucchini was Zaoqing F1 (manufactured by Wuwei Dadi Seed Industry Co., Ltd.), which was sown on July 29th, 2016. The first application was started on August 26th, at the early onset of powdery mildew (the average disease index is 10.07). The instrument for application was Agrolex HD 400 Model hand operating knapsack sprayer, which employed a cone nozzle. Each agent was formulated into the desired concentrations according to the usage amount of the control clear water. Both sides of the leaves were sprayed evenly so that the leaves were wetted by the liquor without loss. 10% of 3-(3',4'-methylenedioxy phenyl)-N-n-propyl acrylamide EC and 14% of 3-(3',4'-methylenedioxy phenyl)-piperidine acrylate EC were both diluted at a concentration of 0.50 mg/mL (active ingredients); the control agent, 430 g/L of tebuconazole SC (manufactured by Yantai Keda Chemical Co., Ltd.) was also diluted at a concentration of 0.50 mg/mL (active ingredients); additionally clear water was used as the control. Thereafter, applications were conducted every 7 days consecutively for 4 times. 10 days after the last application, the number of sick leaves at each grade of powdery mildew was investigated for the whole plant following the grading standard of 9 grades, to calculate the disease index and the control effect.
The variety of flax is Zhangya No. 2. […]

Pythium ultimum = experiment: Supplementary ex vivo determination of antifungal activity; assay type: cell-based; settings: compared with carbendazim
Description: The inhibition of samples for testing on the mycelial growth of plant pathogenic fungi for testing is determined with a growth rate method. 3-(3',4'-methylenedioxy phenyl)-N-n-propyl acrylamide, 3-(3',4'-methylenedioxy phenyl)-piperidine acrylate and five control agents are dissolved with dimethyl sulfoxide (DMSO), then formulated at 5-7 concentrations of different gradients for test following the trial test results, with the same concentration of DMSO as the control solvent, each treatment in triplicate. Fungal cakes with a diameter of 4 mm are taken from the edge of the colony, inoculated into the center of a PDA plate containing different agents of different concentrations and the DMSO control, with one piece of fungal cake inoculated in each plate (with a diameter of […]), and incubated in a constant temperature incubator at a temperature of 22±1.5°C. 7 days later (10-20 days may be needed for some pathogenic fungi), the diameter of the colony is measured with a cross over method according to the mycelial growth profile of the control pathogenic fungi, then the inhibition rate of mycelial growth is calculated.

zucchini powdery mildew = experiment: Field efficiency test, zucchini powdery mildew; assay type: in vivo; settings: 0.50 mg/mL (active ingredients)
From the text: (§2) The formulation of emulsifiable concentrate is the same as that in Embodiment 3.
as §1

F. graminearum = experiment: microbe, parasite or virus in culture; assay type: cell-based; settings: for EC50: median inhibition concentration
Magnaporthe grisea = experiment: microbe, parasite or virus in culture; assay type: cell-based; settings: for EC50: median inhibition concentration
L.taurica = experiment: Field efficiency test, tomato powdery mildew; assay type: in vivo; settings: solar greenhouse
Description: as §2
Tomatoes (Variety: Song Tian Fen Yang Yang) were planted in a solar greenhouse. 14% of 3-(3',4'-methylenedioxy phenyl)-piperidine acrylate EC was diluted at four concentrations of 1.00, 0.80, 0.667 and 0.50 mg/mL (active ingredients); the control agent, 72% cream urea·manganese zinc WP was diluted at a concentration of 1.00 mg/mL (active ingredients); additionally clear water was used as the control. The first application was started before the onset of L.taurica. The instrument for application was a WS-18D knapsack electric sprayer, which employed a cone nozzle. Each agent was formulated into the desired concentrations according to the usage amount of the control clear water. Both sides of the tomato leaves were sprayed evenly. Thereafter, applications were conducted every 7 days consecutively for 4 times. 10 days after the fourth application, the number of sick leaves at each grade of powdery mildew was investigated following the grading standard of 9 grades, to calculate the disease index and the control effect.

[2] = EC50 of chlorothalonil / EC50 of agent
[3] = EC50 of procymidone / EC50 of agent

Row | Compound | safety for zucchini, cucumber, flax, and tomato [1] | antifungal activity against Pythium ultimum (Pythium ultimum) | Control Effect (zucchini powdery mildew) [%] | Relative Toxicity (Compared to Chlorothalonil) (F. graminearum; [2]) | Relative Toxicity (Compared to Procymidone) (F. graminearum; [3]) | EC50 (F. graminearum; Fusarium graminearum) [µg/mL] | EC50 (F. graminearum; listed as 66#) [µg/mL] | Relative Toxicity (Compared to Chlorothalonil) (Magnaporthe grisea; [2]) | Relative Toxicity (Compared to Procymidone) (Magnaporthe grisea; [3]) | EC50 (Magnaporthe grisea; Pyricularia oryzae) [µg/mL] | EC50 (Magnaporthe grisea; listed as 66#) [µg/mL] | Control Effect (L.taurica; 0.50 mg/mL) [%] | Control Effect (L.taurica; 0.667 mg/mL) [%] | Control Effect (L.taurica; 0.80 mg/mL) [%] | Control Effect (L.taurica; 1.00 mg/mL) [%]
1 | CCCNC(=O)/C=C/c1ccc2c(c1)OCO2 [3-(3',4'-methylenedioxyphenyl)-N-n-propyl acrylamide] | safe for zucchini, cucumber, flax, and tomato | superior to that of the control agent, carbendazim | 60.24 | – | – | – | – | – | – | – | – | – | – | – | –
2 | O=C(/C=C/c1ccc2c(c1)OCO2)N1CCCCC1 [3-(3',4'-methylenedioxyphenyl)-piperidine acrylate] | safe for zucchini, cucumber, flax, and tomato | superior to that of the control agent, carbendazim | 30.04 | 1.82 | 6.83 | 120 (≈ 463 µM) | 124.5 (≈ 480 µM) | 2.45 | 1.73 | 180 (≈ 694 µM) | 177.6 (≈ 685 µM) | 81.68 | 88.19 | 90.36 | 97.85
